Experimental data as given in patent publication US7211423B2 (Bristol-Myers Squibb Co., priority 2004, dated 2007).

Assays:
[1] = target: T1, recombinant human ACC2 (Homo sapiens, UniProt O00763, V2141I); experiment: ACC enzyme activity assay ([14C]bicarbonate fixation) with purified recombinant human ACC2; format: biochemical; details: for Km: substrate varied, all other reagents saturating, 37° C.; for IC50: concentration dependent inhibition of recombinant human ACC2
T1 construct: To delete the NH2-terminus 148 amino acid of human ACC2; 6xHis (C); made in house; host or cells: Sf9 insect cells infected with recombinant baculovirus (pBlueBac-human-ACC2-Delta148-V5-Myc-His-WT); purified on a c-Myc-5 IgG column
Description: ACC enzymatic assays were carried out essentially according to Tanabe et al. (Tanabe et al., (1981) Methods Enzymol. 71 Pt C, 5–16) with modifications. […] Aliquots of 30 μl of 25 mM KH[^14C]O3 (specific activity 1.3 μCi/μmol, final KH[^14C]O3, concentration 5 mM) was then added to the mixture to initiate the reaction which was carried out for 10 min at 37° C. At the end, the reactions were quenched with 50 μl 2 N HCl and the vials were heated for 2 hours at 80° C. to remove excess bicarbonate as ^14CO2. Scintillant was then added and the acid-stable malonyl CoA remaining in the vial was counted in a scintillation counter. ACC specific activities were expressed as nmol/min/mg protein.

[2] = target: Rat ACC1 (Rattus norvegicus, UniProt P11497); details: literature value, Trumble et al. (1995); cited from earlier work
[3] = system: Rat ACC2; details: Trumble et al. (1995), cited from earlier work; for IC50: literature value for rat ACC2 enzyme

T1 sequence (O00763 149-2458 V2141I): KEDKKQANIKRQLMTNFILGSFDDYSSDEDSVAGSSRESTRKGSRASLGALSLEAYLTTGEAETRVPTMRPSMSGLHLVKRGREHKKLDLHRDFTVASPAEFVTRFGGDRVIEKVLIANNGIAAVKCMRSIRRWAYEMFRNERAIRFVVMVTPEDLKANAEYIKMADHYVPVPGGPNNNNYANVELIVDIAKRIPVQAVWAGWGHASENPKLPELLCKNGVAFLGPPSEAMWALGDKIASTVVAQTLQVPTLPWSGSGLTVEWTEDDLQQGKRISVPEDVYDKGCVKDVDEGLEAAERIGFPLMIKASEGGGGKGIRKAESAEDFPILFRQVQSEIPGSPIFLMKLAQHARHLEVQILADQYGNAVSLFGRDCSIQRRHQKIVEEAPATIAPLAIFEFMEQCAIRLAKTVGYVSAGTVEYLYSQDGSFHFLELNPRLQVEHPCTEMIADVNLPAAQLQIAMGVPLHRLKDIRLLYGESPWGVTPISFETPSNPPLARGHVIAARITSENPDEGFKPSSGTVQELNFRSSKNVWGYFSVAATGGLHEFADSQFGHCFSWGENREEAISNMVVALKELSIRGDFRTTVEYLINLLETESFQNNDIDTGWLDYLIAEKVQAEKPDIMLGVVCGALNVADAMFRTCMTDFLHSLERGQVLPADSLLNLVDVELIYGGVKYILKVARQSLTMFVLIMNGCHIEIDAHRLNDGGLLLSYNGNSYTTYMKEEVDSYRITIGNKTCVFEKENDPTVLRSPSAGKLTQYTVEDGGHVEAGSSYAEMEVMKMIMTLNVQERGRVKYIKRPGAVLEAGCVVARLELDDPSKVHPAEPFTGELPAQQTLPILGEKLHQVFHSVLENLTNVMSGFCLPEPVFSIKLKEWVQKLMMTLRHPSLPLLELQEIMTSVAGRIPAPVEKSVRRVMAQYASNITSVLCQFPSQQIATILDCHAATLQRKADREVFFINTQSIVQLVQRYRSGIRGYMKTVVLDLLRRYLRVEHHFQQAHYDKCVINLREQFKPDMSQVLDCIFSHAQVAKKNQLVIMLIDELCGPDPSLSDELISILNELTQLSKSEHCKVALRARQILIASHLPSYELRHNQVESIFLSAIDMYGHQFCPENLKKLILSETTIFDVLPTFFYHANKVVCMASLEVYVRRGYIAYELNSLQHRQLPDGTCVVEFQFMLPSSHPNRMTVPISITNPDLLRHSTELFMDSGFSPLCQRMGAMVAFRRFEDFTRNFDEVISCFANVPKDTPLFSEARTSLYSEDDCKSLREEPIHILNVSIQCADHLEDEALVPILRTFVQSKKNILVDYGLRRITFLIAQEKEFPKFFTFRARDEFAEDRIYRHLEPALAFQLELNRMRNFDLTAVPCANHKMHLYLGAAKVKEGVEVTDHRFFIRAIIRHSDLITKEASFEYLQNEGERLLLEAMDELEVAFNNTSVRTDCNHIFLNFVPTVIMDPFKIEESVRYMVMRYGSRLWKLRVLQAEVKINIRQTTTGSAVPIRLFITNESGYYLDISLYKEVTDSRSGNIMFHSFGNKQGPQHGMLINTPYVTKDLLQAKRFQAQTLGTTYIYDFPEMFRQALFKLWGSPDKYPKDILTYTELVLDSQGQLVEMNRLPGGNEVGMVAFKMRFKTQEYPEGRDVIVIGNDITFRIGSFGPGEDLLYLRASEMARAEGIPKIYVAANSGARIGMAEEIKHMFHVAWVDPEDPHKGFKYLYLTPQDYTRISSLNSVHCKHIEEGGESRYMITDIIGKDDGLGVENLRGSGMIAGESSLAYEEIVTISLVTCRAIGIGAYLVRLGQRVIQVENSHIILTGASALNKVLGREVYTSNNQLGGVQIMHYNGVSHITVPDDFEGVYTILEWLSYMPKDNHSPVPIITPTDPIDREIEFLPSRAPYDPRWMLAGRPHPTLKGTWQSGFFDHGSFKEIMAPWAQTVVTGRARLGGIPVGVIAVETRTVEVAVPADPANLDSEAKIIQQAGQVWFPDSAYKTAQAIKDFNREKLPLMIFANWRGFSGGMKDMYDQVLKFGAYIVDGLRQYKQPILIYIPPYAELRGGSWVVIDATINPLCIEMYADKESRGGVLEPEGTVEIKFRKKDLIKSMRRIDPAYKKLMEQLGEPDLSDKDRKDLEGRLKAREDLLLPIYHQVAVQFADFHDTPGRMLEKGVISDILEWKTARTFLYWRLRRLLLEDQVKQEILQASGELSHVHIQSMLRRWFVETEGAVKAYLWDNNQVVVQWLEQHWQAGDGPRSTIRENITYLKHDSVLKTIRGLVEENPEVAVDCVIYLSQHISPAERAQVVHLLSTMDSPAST

Row | SMILES | IC50 [1] [µM] | Km [1] [µM] | Km [2] [µM] | Km ([3]; literature value) [µM] | IC50 [3] [µM] | other results
1 | Nc1ncnc2c1ncn2[C@@H]1O[C@H](COP(=O)(O)OP(=O)(O)OP(=O)(O)O)[C@@H](O)[C@H]1O [ATP] | – | 270 | 110 | 58 | – | –
2 | CC(=O)SCCNC(=O)CCNC(=O)[C@H](O)C(C)(C)COP(=O)(O)OP(=O)(O)OC[C@H]1O[C@@H](n2cnc3c(N)ncnc32)[C@H](O)[C@@H]1OP(=O)(O)O [Acetyl CoA, acetyl CoA] | – | – | 22 | 32 | – | –
3 | O=C(O)CC(O)(CC(=O)O)C(=O)O [Citrate] | – | – | – | – | – | Kact [2]: 3 mM; Kact ([3]; literature value): 2.1 mM
4 | O=C(O)O [HCO3^−, bicarbonate] | – | 5000 | 2700 | 2300 | – | –
5 | CC(C)(COP(=O)(O)OP(=O)(O)OC[C@H]1O[C@@H](n2cnc3c(N)ncnc32)[C@H](O)[C@@H]1OP(=O)(O)O)[C@@H](O)C(=O)NCCC(=O)NCCSC(=O)CC(=O)O [malonyl CoA] | 26.7 | – | – | – | 10.6 | –
6 | CCCCCCCCCCCCCCCC(=O)SCCNC(=O)CCNC(=O)[C@H](O)C(C)(C)COP(=O)(O)OP(=O)(O)OC[C@H]1O[C@@H](n2cnc3c(N)ncnc32)[C@H](O)[C@@H]1OP(=O)(O)O [palmitoyl CoA] | 4.4 | – | – | – | 2.2 | –
